Experimental data taken from patent publication US6506766B1 (Abbott Laboratories, priority 1998, dated 2003).
Read-outs that look alike come from different tables or passages of the source.

Columns and labels:
[1] = target: T1, human progesterone receptor-A [PRA] isoform (Homo sapiens, UniProt P06401); experiment: Radioligand binding with human progesterone receptor cytosol ([3H]-progesterone competition); conditions: read-out: Ki (nM) PR
T1 construct: host or cells: insect SF21 cells (baculovirus)
T1 sequence (P06401 1-769 isoform P06401-2): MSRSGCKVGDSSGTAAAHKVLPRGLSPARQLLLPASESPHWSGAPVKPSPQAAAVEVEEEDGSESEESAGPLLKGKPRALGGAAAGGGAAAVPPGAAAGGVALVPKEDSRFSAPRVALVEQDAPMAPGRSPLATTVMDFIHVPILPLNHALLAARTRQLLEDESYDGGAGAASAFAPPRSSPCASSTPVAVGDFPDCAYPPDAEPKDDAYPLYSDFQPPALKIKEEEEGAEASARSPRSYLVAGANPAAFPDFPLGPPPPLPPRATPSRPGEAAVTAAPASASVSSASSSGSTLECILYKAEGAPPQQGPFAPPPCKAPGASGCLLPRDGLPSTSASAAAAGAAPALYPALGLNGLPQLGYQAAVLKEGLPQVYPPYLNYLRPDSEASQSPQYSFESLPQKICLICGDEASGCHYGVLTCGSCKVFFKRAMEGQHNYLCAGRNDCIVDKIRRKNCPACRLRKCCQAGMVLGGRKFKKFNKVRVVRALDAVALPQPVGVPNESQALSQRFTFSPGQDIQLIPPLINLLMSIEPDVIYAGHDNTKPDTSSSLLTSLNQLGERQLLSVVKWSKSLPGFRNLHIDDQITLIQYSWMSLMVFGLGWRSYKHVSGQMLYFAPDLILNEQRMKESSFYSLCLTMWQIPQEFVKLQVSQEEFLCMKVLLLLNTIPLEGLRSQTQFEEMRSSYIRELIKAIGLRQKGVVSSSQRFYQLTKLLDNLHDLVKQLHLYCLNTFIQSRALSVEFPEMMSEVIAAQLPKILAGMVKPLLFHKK

[2] = target: T2, human glucocorticoid receptor-α [GRX] isoform (Homo sapiens, UniProt P04150); experiment: Radioligand binding with human glucocorticoid receptor cytosol ([3H]-dexamethasone competition); conditions: read-out: Ki (nM) GR
T2 construct: host or cells: insect SF21 cells (baculovirus)
T2 sequence (P04150 1-777): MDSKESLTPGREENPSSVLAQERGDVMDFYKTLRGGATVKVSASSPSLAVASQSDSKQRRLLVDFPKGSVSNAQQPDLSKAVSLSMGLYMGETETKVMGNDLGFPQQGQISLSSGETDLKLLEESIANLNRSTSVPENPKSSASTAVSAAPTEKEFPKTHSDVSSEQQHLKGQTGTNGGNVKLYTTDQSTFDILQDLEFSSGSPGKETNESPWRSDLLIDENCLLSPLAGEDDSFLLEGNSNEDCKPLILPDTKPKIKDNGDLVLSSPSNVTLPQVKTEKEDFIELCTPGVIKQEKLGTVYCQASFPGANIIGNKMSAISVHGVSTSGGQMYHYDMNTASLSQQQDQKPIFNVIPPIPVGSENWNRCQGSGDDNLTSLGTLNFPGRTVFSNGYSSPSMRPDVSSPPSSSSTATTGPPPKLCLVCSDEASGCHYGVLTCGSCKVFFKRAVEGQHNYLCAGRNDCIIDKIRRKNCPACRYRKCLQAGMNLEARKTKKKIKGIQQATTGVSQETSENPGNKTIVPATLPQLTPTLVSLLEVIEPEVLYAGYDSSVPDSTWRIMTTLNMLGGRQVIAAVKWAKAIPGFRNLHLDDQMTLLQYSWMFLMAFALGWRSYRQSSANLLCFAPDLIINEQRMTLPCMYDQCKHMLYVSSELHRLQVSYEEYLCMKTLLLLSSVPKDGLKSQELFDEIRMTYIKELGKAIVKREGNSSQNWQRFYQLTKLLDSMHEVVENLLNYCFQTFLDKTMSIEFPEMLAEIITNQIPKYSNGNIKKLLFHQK

[3] = PRA cytosol expressed in insect SF21 cells, [3H]Prog ~0.8 nM, 4° C. overnight, Ki by Cheng-Prusoff, KL ~4.5 nM
[4] = GRX cytosol expressed in insect SF21 cells, [3H]-Dex ~0.9 nM, 4° C. overnight, Ki by Cheng-Prusoff, KL ~[…]

| Compound | Ki [1, 3] [nM] | melting point [°C] | Ki [2, 4] [nM] | Ki [1] [nM] | Ki [2] [nM] |
| --- | --- | --- | --- | --- | --- |
| COc1cccc2c1-c1ccc3c(c1C(CC=C1CCCCC1)O2)C(C)=CC(C)(C)N3 (stereo not drawn) [Example 187, 2,5-Dihydro-10-methoxy-5-(2-cyclohexylidenylethyl)-2,2,4-trimethyl-1H-[1]benzopyrano[3,4-f]quinoline] | 3900 | 130 to 135 | 46 | – | – |
| COc1cccc2c1-c1ccc3c(c1C(CNC(=O)OC(C)(C)C)O2)C(C)=CC(C)(C)N3 (stereo not drawn) [Example 206] | ≥ 10000 | 130 to 135 | 201 | – | – |
| COC(=O)c1cccc2c1-c1ccc3c(c1C(c1ccccc1)O2)C(C)=CC(C)(C)N3 (stereo not drawn) [Example 335, Methyl 2,5-Dihydro-5-phenyl-2,2,4-trimethyl-1H-[1]benzopyrano[3,4-f]quinoline-10-carboxylate] | ≥ 10000 | 150 to 152 | 652 | – | – |
| C=Cc1cccc2oc(=O)c3c4c(ccc3c12)NC(C)(C)C=C4C [Example 339, 2,5-Dihydro-10-ethenyl-5-oxo-2,2,4-trimethyl-1H-[1]benzopyrano[3,4-f]quinoline] | ≥ 10000 | 218 to 224 | 112 | – | – |
| C=Cc1cccc2c1-c1ccc3c(c1C(C1(C)CC=CCC1)O2)C(C)=CC(C)(C)N3 (stereo not drawn) [Example 341, 2,5-Dihydro-10-ethenyl-5-[1-methyl-3-cyclohexenyl]-2,2,4-trimethyl-1H-[1]benzopyrano[3,4-f]quinoline] | – | 198 to 201 | – | – | – |
| COc1c(O)ccc2c1-c1ccc3c(c1C(c1ccsc1)O2)C(C)=CC(C)(C)N3 (stereo not drawn) [Example 444, 2,5-Dihydro-9-hydroxy-10-methoxy-2,2,4-trimethyl-5-(3-thienyl)-1H-[1]benzopyrano[3,4-f]quinoline] | 406 | – | 1.6 | – | – |
| COc1c(O)ccc2c1-c1ccc3c(c1C(Cc1ccc(F)cc1)O2)C(C)=CC(C)(C)N3 (stereo not drawn) [Example 445, 2,5-Dihydro-9-hydroxy-10-methoxy-2,2,4-trimethyl-5-(4-(fluorophenyl)methyl)-1H-[1]benzopyrano[3,4-f]quinoline] | 3470 | – | 4 | – | – |
| (+/−)2,5-Dihydro-9-hydroxy-10-methoxy-2,2,4-trimethyl-5(S)-(3(S)-1-hydroxymethylcyclopenten-3-yl)-1H-[1]benzopyrano[3,4-f]quinoline [Example 270] | – | – | – | 4760 | 0.66 |
| O-[3-(2,5-Dihydro-10-methoxy-2,2,4-trimethyl-1H-[1]benzopyrano[3,4-f]quinolin-5-yl)phenyl]ester [Example 102] | ≥ 10000 | – | 17.7 | – | – |
